System: 422866-222-R5-J1-PDC complex spheroids viability
Experiment: Anticancer human tumor 422866-222-R5-J1-PDC patient-derived pancreatic adenocarcinoma cell line growth inhibition [RAS]
Conditions: for IC50: curve of first compound; for viability, T/C: stronger effect = lower value; active means viability on the fitted dose curve at most 10% of control; inactive means the rest
Procedure, shortened: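 Multi-cell-type spheroids: tumor cells plus HUVEC endothelial cells and mesenchymal stem cells. RAS-pathway inhibitors were combined with targeted agents, each dosed in half-log steps down from clinical Cmax, or from 10 microM when Cmax was unknown.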
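Further: spheroids exposed to compounds for 7 days.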
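Wherever viability, T/C is given: 100% = DMSO vehicle control viability.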

NC1c2ccccc2OC12CCN(c1cnc3c(N4CCCc5ncccc54)n[nH]c3n1)CC2 (centres undefined) + CCn1c(-c2cccnc2C(C)OC)c2c3cc(ccc31)N1CCOC(CC(NC(=O)C(C(C)C)N(C)C(=O)C3(F)CCN(C(=O)C#CC(C)(C)N(C)C)CC3)C(=O)N3CCCC(N3)C(=O)OCC(C)(C)C2)C1
< 31.6 nM: IC50 (second compound 0.000949 µM) | IC50 (second compound 0.003 µM) | IC50 (second compound 0.00949 µM) | IC50 (second compound 0.03 µM) | IC50 (second compound 0.0949 µM) | IC50 (second compound 0.3 µM)
inactive: viability, T/C (second compound 0.000949 µM, first compound 0.0316 µM) 20.1% | viability, T/C (second compound 0.000949 µM, first compound 0.1 µM) 18.2% | viability, T/C (second compound 0.000949 µM, first compound 0.316 µM) 14.9% | viability, T/C (second compound 0.000949 µM, first compound 1 µM) 16.1% | viability, T/C (second compound 0.000949 µM, first compound 3.16 µM) 18.1% | viability, T/C (second compound 0.000949 µM, first compound 10 µM) 15.7% | viability, T/C (second compound 0.003 µM, first compound 0.0316 µM) 16% | viability, T/C (second compound 0.003 µM, first compound 0.1 µM) 12.6% | viability, T/C (second compound 0.003 µM, first compound 0.316 µM) 14.4% | viability, T/C (second compound 0.003 µM, first compound 1 µM) 14.4% | viability, T/C (second compound 0.003 µM, first compound 3.16 µM) 13.5% | viability, T/C (second compound 0.003 µM, first compound 10 µM) 15.1% | viability, T/C (second compound 0.00949 µM, first compound 0.0316 µM) 17.7% | viability, T/C (second compound 0.00949 µM, first compound 0.1 µM) 14.1% | viability, T/C (second compound 0.00949 µM, first compound 0.316 µM) 13.7% | viability, T/C (second compound 0.00949 µM, first compound 1 µM) 14.3% | viability, T/C (second compound 0.00949 µM, first compound 3.16 µM) 13.8% | viability, T/C (second compound 0.00949 µM, first compound 10 µM) 15.8% | viability, T/C (second compound 0.03 µM, first compound 0.0316 µM) 15.8% | viability, T/C (second compound 0.03 µM, first compound 0.1 µM) 12.8% | viability, T/C (second compound 0.03 µM, first compound 0.316 µM) 14.3% | viability, T/C (second compound 0.03 µM, first compound 1 µM) 12.9% | viability, T/C (second compound 0.03 µM, first compound 3.16 µM) 12.9% | viability, T/C (second compound 0.03 µM, first compound 10 µM) 13.6% | viability, T/C (second compound 0.0949 µM, first compound 0.0316 µM) 12.8% | viability, T/C (second compound 0.0949 µM, first compound 0.1 µM) 13.3% | viability, T/C (second compound 0.0949 µM, first compound 0.316 µM) 13.6% | viability, T/C (second compound 0.0949 µM, first compound 1 µM) 13% | viability, T/C (second compound 0.0949 µM, first compound 3.16 µM) 12.6% | viability, T/C (second compound 0.0949 µM, first compound 10 µM) 13.4% | viability, T/C (second compound 0.3 µM, first compound 0.0316 µM) 11.3% | viability, T/C (second compound 0.3 µM, first compound 0.1 µM) 13.4% | viability, T/C (second compound 0.3 µM, first compound 0.316 µM) 13.9% | viability, T/C (second compound 0.3 µM, first compound 1 µM) 11.3% | viability, T/C (second compound 0.3 µM, first compound 3.16 µM) 14.2% | viability, T/C (second compound 0.3 µM, first compound 10 µM) 17.4%

C=CC(=O)N1CCN(c2nc(OCC3CCCN3C)nc3c(F)c(-c4nc(N)cc(C)c4C(F)(F)F)c(Cl)cc23)C(C)C1 (centres undefined) + C#Cc1c(F)ccc2cc(O)cc(-c3ncc4c(N5CC6CCC(C5)N6)nc(OCC56CCCN5CC(F)C6)nc4c3F)c12
< 3.16 nM: IC50 (second compound 0.0316 µM) | IC50 (second compound 0.1 µM) | IC50 (second compound 0.316 µM) | IC50 (second compound 1 µM) | IC50 (second compound 3.16 µM) | IC50 (second compound 10 µM)
inactive: viability, T/C (second compound 0.0316 µM, first compound 0.00316 µM) 29.7% | viability, T/C (second compound 0.0316 µM, first compound 0.01 µM) 24% | viability, T/C (second compound 0.0316 µM, first compound 0.0316 µM) 21.9% | viability, T/C (second compound 0.0316 µM, first compound 0.1 µM) 19.4% | viability, T/C (second compound 0.0316 µM, first compound 0.316 µM) 19% | viability, T/C (second compound 0.0316 µM, first compound 1 µM) 22% | viability, T/C (second compound 0.1 µM, first compound 0.00316 µM) 28.4% | viability, T/C (second compound 0.1 µM, first compound 0.01 µM) 24.6% | viability, T/C (second compound 0.1 µM, first compound 0.0316 µM) 21.2% | viability, T/C (second compound 0.1 µM, first compound 0.1 µM) 18.6% | viability, T/C (second compound 0.1 µM, first compound 0.316 µM) 20.9% | viability, T/C (second compound 0.1 µM, first compound 1 µM) 21.3% | viability, T/C (second compound 0.316 µM, first compound 0.00316 µM) 29.6% | viability, T/C (second compound 0.316 µM, first compound 0.01 µM) 24.6% | viability, T/C (second compound 0.316 µM, first compound 0.0316 µM) 25.7% | viability, T/C (second compound 0.316 µM, first compound 0.1 µM) 19.2% | viability, T/C (second compound 0.316 µM, first compound 0.316 µM) 21% | viability, T/C (second compound 0.316 µM, first compound 1 µM) 21% | viability, T/C (second compound 1 µM, first compound 0.00316 µM) 20.5% | viability, T/C (second compound 1 µM, first compound 0.01 µM) 21.4% | viability, T/C (second compound 1 µM, first compound 0.0316 µM) 21.7% | viability, T/C (second compound 1 µM, first compound 0.1 µM) 19.8% | viability, T/C (second compound 1 µM, first compound 0.316 µM) 18.8% | viability, T/C (second compound 1 µM, first compound 1 µM) 17.5% | viability, T/C (second compound 3.16 µM, first compound 0.00316 µM) 21.6% | viability, T/C (second compound 3.16 µM, first compound 0.01 µM) 18.1% | viability, T/C (second compound 3.16 µM, first compound 0.0316 µM) 21% | viability, T/C (second compound 3.16 µM, first compound 0.1 µM) 22.5% | viability, T/C (second compound 3.16 µM, first compound 0.316 µM) 19% | viability, T/C (second compound 3.16 µM, first compound 1 µM) 22.6% | viability, T/C (second compound 10 µM, first compound 0.00316 µM) 17.9% | viability, T/C (second compound 10 µM, first compound 0.01 µM) 20.3% | viability, T/C (second compound 10 µM, first compound 0.0316 µM) 20.8% | viability, T/C (second compound 10 µM, first compound 0.1 µM) 17.5% | viability, T/C (second compound 10 µM, first compound 0.316 µM) 20.7% | viability, T/C (second compound 10 µM, first compound 1 µM) 17.6%

Reference: PubChem BioAssay AID2060901 (Molecular Pharmacology Branch, DTP, NCI, 2025)
